The nature of series [1]: Half life in dog at 0.5 mg/kg, iv. The series is classed as ADME, organism-based, Canis lupus familiaris. As to conditions: in vivo.
The test system of series [2] is Mus musculus. Briefly: Neuroprotective activity against Eif 2bS R191H […] mouse model assessed as reduction in Slc1a5 level in brain at 50 mg/kg, po administered for 2 days. As to conditions: time 2.0 day. The series is classed as functional, organism-based.
Series [3] deals with Mus musculus. Briefly: Neuroprotective activity against Eif 2bS R191H […] mouse model assessed as reduction in Psat1 level in brain at 50 mg/kg, po administered for 2 days. The series is classed as functional, organism-based. As to conditions: time 2.0 day.
Series [4] relates to Mus musculus. Briefly: Neuroprotective activity against Eif 2bS R191H […] mouse model assessed as reduction in asns level in brain at 50 mg/kg, po administered for 2 days. It counts as functional, organism-based. As to conditions: time 2.0 day.
The target in series [5] is Voltage-gated inwardly rectifying potassium channel KCNH2 (Homo sapiens, UniProt Q12809). Briefly: Inhibition of hERG manual patch clamp assay. It counts as toxicity. In general terms: hERG is a cardiac potassium channel; its block is linked to QT prolongation.
Chain of Voltage-gated inwardly rectifying potassium channel KCNH2 (Q12809 whole entry): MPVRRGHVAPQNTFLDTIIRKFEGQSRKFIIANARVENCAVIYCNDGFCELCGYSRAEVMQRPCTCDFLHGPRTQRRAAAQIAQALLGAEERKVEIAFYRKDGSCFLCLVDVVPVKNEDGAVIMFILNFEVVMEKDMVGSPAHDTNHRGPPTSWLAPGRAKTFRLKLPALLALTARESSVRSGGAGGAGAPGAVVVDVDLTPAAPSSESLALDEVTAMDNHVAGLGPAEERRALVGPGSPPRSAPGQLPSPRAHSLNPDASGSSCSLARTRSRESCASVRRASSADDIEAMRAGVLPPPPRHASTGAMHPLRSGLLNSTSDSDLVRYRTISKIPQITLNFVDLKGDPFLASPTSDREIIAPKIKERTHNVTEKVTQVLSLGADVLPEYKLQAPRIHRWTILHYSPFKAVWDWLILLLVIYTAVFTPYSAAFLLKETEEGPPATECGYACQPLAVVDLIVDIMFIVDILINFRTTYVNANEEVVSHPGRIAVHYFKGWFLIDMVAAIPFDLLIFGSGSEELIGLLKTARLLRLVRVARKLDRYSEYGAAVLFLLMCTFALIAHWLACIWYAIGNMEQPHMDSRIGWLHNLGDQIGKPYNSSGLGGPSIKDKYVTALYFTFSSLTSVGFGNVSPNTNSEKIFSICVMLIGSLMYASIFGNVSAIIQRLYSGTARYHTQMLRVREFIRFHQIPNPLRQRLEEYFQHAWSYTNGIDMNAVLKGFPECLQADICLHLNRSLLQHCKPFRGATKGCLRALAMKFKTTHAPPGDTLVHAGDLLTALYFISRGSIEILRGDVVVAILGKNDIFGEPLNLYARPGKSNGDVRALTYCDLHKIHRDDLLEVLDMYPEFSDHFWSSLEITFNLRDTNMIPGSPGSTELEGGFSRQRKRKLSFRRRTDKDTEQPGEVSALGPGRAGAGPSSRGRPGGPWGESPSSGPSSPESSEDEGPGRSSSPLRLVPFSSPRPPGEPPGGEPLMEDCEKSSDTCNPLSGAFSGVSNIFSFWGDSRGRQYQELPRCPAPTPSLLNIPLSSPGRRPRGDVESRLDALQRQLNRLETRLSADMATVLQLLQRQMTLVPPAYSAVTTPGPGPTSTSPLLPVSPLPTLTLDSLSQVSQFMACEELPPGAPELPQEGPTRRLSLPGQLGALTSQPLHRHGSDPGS
A short description of series [6]: Metabolic stability in rat liver microsome assessed as clearance. The series is classed as ADME. As to conditions: liver microsomes.
Series [7] in a line: Oral bioavailability in rat at 3 mg/kg by LC-MS/MS analysis. The series is classed as ADME, organism-based. As to conditions: in vivo.
For series [8], the target named is T1, Nuclear receptor subfamily 1 group I member 3 (Homo sapiens, UniProt Q14994).
T1 sequence (Q14994 whole entry): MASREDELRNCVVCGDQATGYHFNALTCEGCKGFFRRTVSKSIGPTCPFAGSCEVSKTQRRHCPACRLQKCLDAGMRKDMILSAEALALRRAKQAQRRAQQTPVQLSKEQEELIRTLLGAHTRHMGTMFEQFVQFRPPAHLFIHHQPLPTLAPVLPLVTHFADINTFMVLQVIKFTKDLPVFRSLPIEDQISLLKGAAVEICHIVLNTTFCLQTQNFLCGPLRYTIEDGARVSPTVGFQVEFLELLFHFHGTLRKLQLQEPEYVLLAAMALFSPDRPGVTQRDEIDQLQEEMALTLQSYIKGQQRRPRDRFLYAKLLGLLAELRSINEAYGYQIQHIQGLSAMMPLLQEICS
The series is described as follows: Activation of CAR (unknown origin).

Series [9] is described as follows: Half life in cynomolgus monkey at 0.5 mg/kg, iv. As to conditions: in vivo. It counts as ADME, organism-based, Macaca fascicularis.

Calls of active or inactive are those of the source. The rule behind the calls is not given here. Where only a bound is given, the exact number is not on record here.

Usually half-life stands for how long it takes for the measured level to halve. Usually IC50 stands for the midpoint of a concentration-inhibition curve. As usually defined, the bioavailability is dose-corrected exposure relative to a reference, in per cent. As to `O=C(COc1ccc(Cl)cc1)NC12CC(c3nnc([C@H]4C[C@@H](OC(F)(F)F)C4)o3)(C1)C2` [EVETIFATOR], the half-life in series [1] was 7.4 h; in series [9] it was 7.6 h. For the same compound, the outcome with Mus musculus [2], with Mus musculus [3] and in the series with Mus musculus [4] was Active. In series [5], this compound returned an IC50 of 3 µM. Further, the CLhep predicted in series [6] is under 17 mL/min/kg. In series [7], this compound returned a bioavailability of 65%. Also, the Activity result in [8] is “Not Active”.

The values are drawn from ChEMBL document CHEMBL5543116, “Discovery of DNL343: A Potent, Selective, and Brain-Penetrant eIF2B Activator Designed for the Treatment of Neurodegenerative Diseases” (J Med Chem, 2024).
